From patent US11666562B2, “Ilaprazole for inhibiting the release of enveloped viruses from cells” (Northwestern University, priority 2020, dated 2023)

Legend:
HSV-1 = assay: Release of HSV-1 from infected Vero cells, plaque assay; format: cell-based, Herpes simplex virus-1 (Kos strain); conditions: different concentrations, repeated 4 times
Method: (§1) We infected Vero cells with HSV-1 and HSV-2 for two hours at a multiplicity of infection (MOI in pfu\cell) of 0.1 to assay the antiviral activity of tenatoprazole. Following infection, cells were treated with different concentrations of tenatoprazole. After 24 or 48 h the media fractions were collected and released virus titers were determined by standard plaque assays (30). Tenatoprazole caused a 3-log drop of HSV-1 and 4-5 log drop of HSV-2 in released infectious virus from Vero cells at 24 hours after infection in a dose dependent manner (Table 1, shown in FIG. 5, columns 2 and 3) with calculated EC50's ranging from 48-80 μM. Total virus titer was also determined to differentiate between virus released into the media and infectious particles present in cell lysate. […] The concentrations of tenatoprazole that blocked virus release were nontoxic to Vero cells as determined by a 96® AQueous One Solution cell proliferation assay reagent (Table 1, shown in FIG. 5, column 7). Taken together, tenatoprazole inhibited levels of both released and infectious virus particles without affecting cell viability at effective concentrations.
(§2) Herpesvirus infection of Vero cells. Vero cells (0.8×10^6 cells/well of a 6-well plate) were infected with HSV-1 or HSV-2 at a MOI of 0.1 pfu/cell in DMEM with 1% serum for two hours in the C02 incubator at 37° C. In one experiment looking at the effect of tenatoprazole on HSV-2 release from cells 24 and 48 h a MOI of 3 pfu/cell was used. The cell supernatants were aspirated and replaced with 1 ml (24 h) or 2 ml (48 h and 72 h) of DMEM with 1% serum with DMSO or different concentrations of drug (tenatoprazole, ilaprazole, or analogs) dissolved in DMSO. After 24 or 48 h incubation, the cell supernatant was collected and frozen at −80° C. Virus titer in the cell media fraction was determined by standard plaque assays using 10-fold serial dilutions of cell supernatants of Vero cells and incubated for 48 h after which cells were fixed and stained to count the plaques (22). For determination of total virus (extracellular+cytoplasmic), virus infected cells were incubated for 24 h with and without drug presence, then the plate of cells were subjected to 3 cycles of freeze/thawing (−80° C./37° C.) 30 min each prior to collecting the supernatant after centrifugation for measurement of total virus titer. Virus titer was measured by standard plaque assay as above.
(§3) Drug potency and cell toxicity. EC50 calculations were determined by using AAT Bioquest's EC50 calculator. Cell toxicity at different concentrations of drugs as indicated was determine using the Cell Proliferation Reagent WST-1 (Roche Diagnostics) or cellular 96® Aqueous One Reagent viability reagent according to manufacturer's instructions. For 293T cells, the concentration of DMSO was 0.2% or less and assays were carried out with DMEM with 10% serum. Cell toxicity experiments were repeated twice.

HSV-2 = assay: Release of HSV-2 from infected Vero cells, plaque assay; format: cell-based, Herpes simplex virus-2(A/B-G); conditions: for Anti-HSV-2 activity (release from Vero cells), in words: Table 2, 24 h
Method: as §1
To examine the effects of the compounds on the release of HSV-2 from Vero cells, we infected the cells with virus two hours prior to treatment with media containing different concentrations of compound. We incubated the cells for 24 or 48 hours and then collected the cell media fractions.
as §2, §3

HIV-1 = conditions: earlier reports (refs 5, 29); cited from earlier work
[1] = target: T1, Tsg101-UEV (Tsg101 amino acids 1-145) (Homo sapiens, UniProt Q99816); assay: Fluorescence thermal shift (FTS) assay, binding to Tsg101-UEV; conditions: FTS, Sypro-Orange, no DTT
T1 construct: The recombinant Tsg101 fragment (amino acids 1-145), prepared as described above in Materials and Methods; His6 (N); thrombin protease cleavage site (N); made in house; host or cells: E. coli ROSETTA 2 (DE3) pLysS
T1 sequence (Q99816 1-145): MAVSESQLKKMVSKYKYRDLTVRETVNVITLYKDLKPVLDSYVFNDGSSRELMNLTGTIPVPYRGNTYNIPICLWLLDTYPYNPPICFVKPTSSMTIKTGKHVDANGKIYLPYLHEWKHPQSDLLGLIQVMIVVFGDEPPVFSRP
Method: The fluorescence-based thermal shift assay is based on the observation that a protein unfolds upon heating, exposing the hydrophobic residues within its tertiary structure. The unfolding temperature (Tm) is determined by the protein's primary sequence and solution environment. The FTS assay uses a fluorescent dye sensitive to a hydrophobic environment to probe protein stability and its modulation by small molecule ligands. The dye has a low fluorescence quantum yield when in a polar environment. Once in contact with the hydrophobic core normally buried within a folded protein that has become exposed during the thermal unfolding (melting) process, the quantum yield of the dye increases, thus providing a reporting signal. Furthermore, a protein's stability can be affected by ligand binding, resulting in an increase or decrease in its melting temperature. FTS assay uses the Tm shift upon binding of a ligand to identify hit compounds for drug discovery.
Identification of prazole compounds that bind the UEV ubiquitin-binding domain of Tsg101. We screened chemical compounds using a fluorescence thermal shift (FTS) assay (27, 28) to identify small molecules that bind directly to a truncated form of Tsg101 (amino acids 1-145) which contains the Ubiquitin E2 variant (UEV) ubiquitin-binding domain (FIG. 1). The UEV, which contains the PT/SAP binding domain in addition to the ubiquitin-binding domain, provides chaperone functions to HIV-1 Gag that is independent of its interaction with the PS/TAP motif, and contains the prazole binding site (5). This truncated Tsg101, called Tsg101-UEV, was used because full-length Tsg101 has significant solubility issues in aqueous solution. Tsg101 is an adaptor protein and thus lacks a readily deployable functional assay, making FTS a tractable approach to identify interacting compounds. FTS monitors protein thermal denaturation using SYPRO-Orange, a dye which fluoresces when bound to hydrophobic surfaces, which allows monitoring of the changes in hydrophobic surface exposure during protein denaturation (27). Since ligand binding affects protein thermal stability, it can be detected through modulation of protein thermal denaturation (melting) as a shift in melting temperature (Tm). Tsg101-UEV has a well-defined melting curve suitable for FTS. We used the FTS assay to identify compounds that bind to Tsg101-UEV.
Purification of Tsg101 (1-145). N-terminally His6-tagged Tsg101 UEV domain (amino acids 1-145), called Tsg101-UEV, was encoded in a pET-28b vector (Novagen—EMD Millipore), which also included a thrombin protease cleavage site (His6-Thrombin Site-Tsg101, 1-145). Tsg101-UEV was grown in LB broth with Kanamycin (30 μg/ml) in ROSETTA 2 (DE3) pLysS E. coli competent cells (EMD Millipore) and induced with 1 mM IPTG at room temperature for 3 h. Bacteria were collected by centrifugation at 4,000 rpm for 10 min at […]. Bacteria were suspended in 50 ml binding buffer (20 mM Tris-HCl, pH 7.9, 0.5 M NaCl, 5 mM Imidazole) with 1 mM PMSF, 0.1% NP40, and a Protease Inhibitor Cocktail Tablet (Roche) and sonicated for 3.5 min on ice. The sonicate was spun at 9,000 rpm for 1 h at […] in a Sorvall centrifuge. The supernatant was collected and passed through a 1.5 ml Ni-NTA Agarose column. The column was washed with 20 mM Tris-HCl, pH 7.9, 0.5 M NaCl, 30 mM Imidazole wash buffer. […] Protein concentration was determined with a Nano Drop Spectrophotometer at […]. […]

## NC(CO)C(=O)NNCc1ccc(O)c(O)c1O (stereo not shown) [benserazide (K21), benserazide]
HSV-1
  Effect on release of HSV-1 from VERO cells: did not appear to affect release of virus from cells

## COc1ccc2nc([S@@+]([O-])Cc3ncc(C)c(OC)c3C)[nH]c2c1 [esomeprazole]
HSV-2; Human alphaherpesvirus 2, Vero cells, MOI 0.1, 24 h, read-out: EC50, inhibition of HSV-2 release
  EC50: 140 µM
HIV-1
  Inhibition of release of infectious HIV-1 from 293T cells: quantitatively inhibit the release

## COc1ccc2nc([S+]([O-])Cc3c(C)c(OC)c(C)c[n+]3[O-])[nH]c2c1 (stereo not shown) [omeprazole-N-oxide]
[1]
  Tm (melting temperature) shift of Tsg101-UEV: did not cause a detectable thermal shift
HSV-2
  Anti-HSV-2 activity (release from Vero cells), in words: inactive

## COc1ccnc(C[S+]([O-])c2nc3ccc(OC(F)F)cc3[nH]2)c1OC (stereo not shown) [pantoprazole]
HSV-2
  Anti-HSV-2 activity (release from Vero cells), in words: inactive

## COCCCOc1ccnc(C[S+]([O-])c2nc3ccccc3[nH]2)c1C (stereo not shown) [rabeprazole]
HSV-2
  Anti-HSV-2 activity (release from Vero cells), in words: inactive
